Data reported in paper PMC6633864, “Intestinal Absorption Profile of Three Polygala Oligosaccharide Esters in Polygalae Radix and the Effects of Other Components in Polygalae Radix on Their Absorption” (Evidence-based Complementary and Alternative Medicine : eCAM, 2019).

What was measured:
[1] = parameters: method as in PMID 24043590; conditions: cited from earlier work
[2] = Intestinal absorption in vitro by the everted rat gut sac model; type: in vitro ADME; conditions: n = 5
[3] = Drug stability in blank intestinal circulation fluid; type: in vitro ADME, rat; conditions: 37°C, 3 h
Experimental: The K–R culture solution was circulated in rat intestines for 3 h. PRE, SA5, SA6, and DISS were dissolved in the blank intestinal circulation fluid at concentrations of 12 mg/ml, 0.050 mg/ml, 0.086 mg/ml, and 0.198 mg/ml, respectively, and incubated at 37°C for 3 h. Aliquots of 1 ml samples were taken out at 0, 0.5, 1, 2, and 3 h after preparation for analysis.

[4] = in PRE, high concentration (SA5 0.075, SA6 0.130, DISS 0.296 mg/ml), 180 min
[5] = in PRE, low concentration (SA5 0.025, SA6 0.043, DISS 0.099 mg/ml), 180 min
[6] = monomer, high concentration (SA5 0.075, SA6 0.130, DISS 0.296 mg/ml)
[7] = monomer, low concentration (SA5 0.025, SA6 0.043, DISS 0.099 mg/ml)

K a [2, 4]: 0.109 ± 0.010 ^∗∗,## μg·cm^−2·min^−1 | P (%) percentage of absorption [2, 4]: 2.54 ± 0.19% | P app [2, 4]: 0.61 ± 0.057 ×10^−5cm/s | K a [2, 5]: 0.036 ± 0.0019 μg·cm^−2·min^−1 | P (%) percentage of absorption [2, 5]: 2.55 ± 0.03% | P app [2, 5]: 0.61 ± 0.0033 ×10^−5cm/s | K a [2, 6]: 0.049 ± 0.022 ^∗∗##, μg·cm^−2·min^−1 | P (%) percentage of absorption [2, 6]: 1.18 ± 0.04% | P app [2, 6]: 0.28 ± 0.079 ×10^−5cm/min | K a [2, 7]: 0.015 ± 0.0005 μg·cm^−2·min^−1 | P (%) percentage of absorption [2, 7]: 1.13 ± 0.05% | P app [2, 7]: 0.26 ± 0.068 ×10^−5cm/min | stability in the blank intestinal circulation solution (in words) [3]: stable at 37 °C for 3 h
Structure (SMILES): COc1cc(/C=C/C(=O)OC[C@H]2O[C@H](O[C@]3(CO)O[C@H](CO)[C@@H](O)[C@@H]3OC(=O)/C=C/c3cc(OC)c(O)c(OC)c3)[C@H](O)[C@@H](O)[C@@H]2O)cc(OC)c1O [DISS, 3,6′-disinapoyl sucrose]
effect of ATP energy inhibitor sodium azide on absorption [1]: no effect | effect of P-gp inhibitor cyclosporine A on absorption [1]: no significant effect | effect of paracellular enhancers EDTA and sodium caprate (SC) on Papp [1]: could increase Papp
